# Key:
# MDA-MB-231 cells = assay: Mitotic entry assay (phospho-histone H3 Ser10, nocodazole trap, flow cytometry); format: cell-based, human
# Text: Of these, the G2/M checkpoint involves ATM and ATR in collaboration, whereas the S/M checkpoint is mediated solely by ATR. To maintain genetic integrity, ATR can prevent premature mitotic entry in the event of incomplete DNA replication or unrepaired DNA damage. In order to evaluate the effect of benzopyran-4-one derivatives on these ATR-associated DNA damage checkpoints, we observed the effect of benzopyran-4-one derivatives on mitotic entry following hydroxyurea or cisplatin treatment.
# (§1) DNA replication was measured using a Click-it EdU assay kit, which is based on incorporation of the thymidine analogue 5-ethynyl-2′-deoxyuridine (EdU) into DNA during replication (Invitrogen). Then, 10 μM EdU was added to the cell culture medium 30 min before the cells were harvested and fixed in 4% paraformaldehyde. After cycloaddition, EdU was detected with Alexa Fluor 647 using click reaction catalyzed by Cu (II), and the DNA content was stained by CellCycle 405-blue. To assay the mitotic entry, cells were treated with the indicated drugs and trapped in 70 nM nocodazole for 16 h, and antibodies against phospho-histone H3 Ser10 and PI were used to stain the mitotic cells and DNA content, respectively. An FITC Annexin V apoptosis detection kit was used to characterize the phenotype of cell death based on PI and Annexin V double staining (BD Pharmingen, San Diego, Calif.). Fluorescence-labeled cells were subsequently analyzed by the BD LSR II flow cytometer with a suitable selection of excitation and emission wavelengths. The percentages of different fluorescent cells were analyzed using WinMDI Ver. 2.9.
# [1] = system: ATR-dependent Chk1 phosphorylation; assay: Immunoblot of DNA damage-induced Chk1 phosphorylation; format: cell-based, human; conditions: after H2O2 damage
# Text: (§2) We hypothesized that genes with functions associated with DNA damage checkpoints and/or DNA repair might be targeted by benzopyran-4-one derivatives. To test this hypothesis, we assessed the effects of benzopyran-4-one derivatives on DDR induced by H2O2. […] In response to DNA double-strand breaks (DSBs), FANCD2 is known to be monoubiquitinated on K561 (FANCD2-Ub) in an ATR-dependent manner to stimulate repair (Andreassen P R, et al. Genes Dev 2004).
# (§3) To elucidate the specificity of the benzopyran-4-one derivatives inhibition on ATR-mediated signaling, we compared the change between cells treated with benzopyran-4-one derivatives or the ATM-specific inhibitor KU55933 before the induction of DDR.
# (§4) MDA-MB-231 (breast adenocarcinoma; ATCC HTB-26, BCRC 60425) and A549 (lung adenocarcinoma; ATCC CCL-185, BCRC 60074) human cell lines were purchased from Bioresource Collection and Research Center (BCRC, Hsinchu, Taiwan), and were authenticated by American Type Culture Collection (ATCC, Manassas, Va.). U2OS (osteosarcoma), HeLa (cervical adenocarcinoma), and HEK 293T (embryonic kidney cells) human cell lines were provided by Dr. Sheau-Yann Shieh (Institute of Molecular Biology, Academia Sinica, Taipei, Taiwan). Cells were maintained in Dulbecco's modified Eagle's medium (DMEM, Sigma-Aldrich) supplemented with 10% fetal bovine serum (FBS) (Gibco). […] For UV irradiation treatment, the cells were irradiated for 10 J/m^2 by a cross-linker (UVP) 1 h prior to analysis.
# (§5) Cell lysate preparations, gel electrophoresis, and immunoblotting were performed as previously described (23). The binding of primary antibodies were detected by horseradish peroxidase-coupled secondary antibodies (Jackson ImmunoResearch) followed by enhanced chemiluminescence (ECL) (Millipore). The images of non-saturated bands were captured using a luminescent image analyzer (LAS-4000 mini; Fujifilm). The antibodies used in this study are listed in supplementary materials.
# [2] = system: ATM-mediated Chk2 phosphorylation; assay: Immunoblot of DNA damage-induced Chk2 phosphorylation / ATM autophosphorylation; format: cell-based, human; conditions: after H2O2 damage
# Text: as §2, §3, §4, §5
# DNA replication = assay: EdU incorporation assay of DNA replication; format: cell-based; conditions: 10 μM
# Method: as §1, with “5-ethynyl-2'-deoxyuridine” for “5-ethynyl-2′-deoxyuridine”, “To assay the mitotic entry, cells were treated with the indicated drugs and trapped in 70 nM nocodazole for 16 h, and antibodies against phospho-histone H3 Ser10 and PI were used to stain the mitotic cells and DNA content, respectively.” left out
# CHO cells = assay: In vitro chromosome aberration test; format: cell-based, Chinese Hamster; conditions: 2.00 μM
# Method: To test this hypothesis, we investigated the cytogenetic effect of Protoapigenone (I-1) on CHO cells (FIG. 1).
# In brief, 5×10^5 Chinese Hamster Ovary (CHO) cells were seeded in 60-mm dishes 1 d before the experiment. Protoapigenone (I-1)-induced structural chromosomal changes after 20 h were compared with that of the cells cultured in 2 μM mitomycin C. At 18 h after Protoapigenone (I-1), 0.1 μg/mL colchicine was added for 2 h, and metaphase cells were collected by shaking them off the dishes. Mitotic cells were treated with 0.5% KCl for 10 min and fixed with a 3:1 mixture of methanol: glacial acetic acid. The cells were then spread on slides for chromosome staining with 5% Giemsa solution. We then analyzed the chromosome structure of 200 well-spread metaphase cells (100 metaphase cells/experiment) under a 100× oil immersion objective.
# [3] = DNA-damaging agent alone (Control group column)
smiles,measurement,setting,value
N.N.[Cl][Pt][Cl] [Cisplatin],The percentage of mitotic cells,MDA-MB-231 cells; [3],5.35 ± 0.07%
NC(=O)NO [Hydroxyurea],The percentage of mitotic cells,MDA-MB-231 cells; [3],4.46 ± 0.67%
O=c1cc(-c2cccc3c2Sc2ccccc2S3)oc(N2CCOCC2)c1 [KU55933],Effect on ATR-mediated Chk1 phosphorylation,[1],small
same,"Percentage of mitotic cells in cisplatin-treated cells (G2/M checkpoint), in words",MDA-MB-231 cells; cisplatin-treated cells,increased the percentage of mitotic cells
same,The percentage of mitotic cells,"MDA-MB-231 cells; compound alone (Control group, no DNA-damaging agent)",20.29 ± 1.48%
same,The percentage of mitotic cells,MDA-MB-231 cells; compound with Cisplatin (G2/M checkpoint),9.70 ± 0.25%
same,The percentage of mitotic cells,MDA-MB-231 cells; compound with Hydroxyurea (S/M checkpoint),11.19 ± 0.76%
same,ATM-mediated Chk2 phosphorylation,[2],strongly inhibited
same,Percentage of EdU incorporation compared with control group,DNA replication,not
"CO[C@@]12[C@H](COC(N)=O)C3=C(C(=O)C(C)=C(N)C3=O)N1C[C@@H]1N[C@@H]12 [Mitomycin C, reference compound]",Chromatid break (No.),CHO cells; 200 cells per treatment,2 No.
same,Chromatid deletion,CHO cells; 200 cells per treatment,3 No.
same,Complex rerrangement,CHO cells; 200 cells per treatment,2 No.
same,Dicentric,CHO cells; 200 cells per treatment,1 No.
same,Polyploid,CHO cells; 200 cells per treatment,0 No.
same,Pulverized cell,CHO cells; 200 cells per treatment,5 No.
same,Quadriradial,CHO cells; 200 cells per treatment,29 No.
same,Ring,CHO cells; 200 cells per treatment,0 No.
same,Triradial,CHO cells; 200 cells per treatment,42 No.
same,Average aberrant metaphases (%),CHO cells; * significant vs. control by t-test,42.0 * %

# Source: patent publication US11413267B2, “Methods and compositions for inhibition of ATR and FANCD2 activation” (priority 2012, dated 2022)
